Assay results published in ChEMBL document CHEMBL3045584, “1-(6-Halonicotinyl)-2-nitromethylene-imidazolidines as Potential New Insecticides” (1992).
Calls of active or inactive are those of the source. The calls are words filed in the database; no cut-off is given here.

Each molecule was assayed on Nephotettix cincticeps (assay: Insecticidal activity against Nephotettix cincticeps (green rice leafhopper) measured after 5 days).
Format: functional
Work on `O=[N+]([O-])/C=C1\NCCN1Cc1cccc(Cl)c1` yielded an LC90 of 200 ppm. `O=[N+]([O-])/C=C1\NCCN1Cc1cccnc1Cl` gave an LC90 of 200 ppm. For `O=[N+]([O-])/C=C1\NCCN1Cc1ccccc1`, the LC90 was 200 ppm. Work on `O=[N+]([O-])/C=C1\NCCN1Cc1ccc(C(F)(F)F)nc1` yielded an LC90 of 8 ppm. `O=[N+]([O-])/C=C1\NCCN1Cc1ccc([N+](=O)[O-])cc1` was tested, and the LC90 was 200 ppm. `N#Cc1ccc(CN2CCN/C2=C\[N+](=O)[O-])cn1` was tested, and the LC90 was 200 ppm. `O=[N+]([O-])/C=C1\NCCN1Cc1ccc(F)nc1` gave an LC90 of 0.32 ppm. In the case of `O=[N+]([O-])/C=C1\NCCN1Cc1ccc(Cl)cn1`, the LC90 is reported as 200 ppm. With `Cc1ccc(CN2CCN/C2=C\[N+](=O)[O-])cc1` the LC90 was 200 ppm. Work on `O=[N+]([O-])C=C1NCCN1` [2-(NITROMETHYLENE)IMIDAZOLIDINE] yielded an LC90 of 1000 ppm. `COc1ccc(CN2CCN/C2=C\[N+](=O)[O-])cc1` was tested, and the LC90 was 200 ppm. Molecule `Cc1ccc(CN2CCN/C2=C\[N+](=O)[O-])cn1` has an LC90 of 1.6 ppm. With `O=[N+]([O-])/C=C1\NCCN1Cc1ccccn1` the LC90 was 200 ppm. `O=[N+]([O-])/C=C1\NCCN1Cc1ccc(Cl)nc1` was tested, and the LC90 was 0.32 ppm. For `O=[N+]([O-])/C=C1\NCCN1Cc1cccnc1`, the LC90 was 8 ppm. With `O=[N+]([O-])/C=C1\NCCN1Cc1ccc(Cl)cc1` the LC90 was 40 ppm. For `CSc1ccc(CN2CCN/C2=C\[N+](=O)[O-])cn1`, the LC90 was 1000 ppm. Work on `O=[N+]([O-])/C=C1\NCCN1Cc1ccnc(Cl)c1` yielded an LC90 of 200 ppm. `O=[N+]([O-])/C=C1\NCCN1Cc1cncc(Cl)c1` was tested, and the LC90 was 40 ppm. With `O=[N+]([O-])/C=C1\NCCN1Cc1ccncc1` the LC90 was 8 ppm. `O=[N+]([O-])/C=C1\NCCN1Cc1ccc(Br)nc1` showed an LC90 of 0.32 ppm.

What follows are molecules tested on Nephotettix cincticeps (assay: Insecticidal activity against Nephotettix cincticeps (green rice leafhopper) measured at 100 ppm after 5 days).
Format: functional, organism-based
In the case of `O=[N+]([O-])/C=C1\NCCN1Cc1ccccc1Cl`, the LC90 is reported as “inactive”.
